Where two headings read alike, the source gives them in different places.
What was measured:
MLL1-WRAD2 complex = MLL1-WRAD2 complex (Homo sapiens (Human), UniProt P61964); assay: MLL1-WRAD2 enzyme assay (in vitro methyl transferase assay); assay type: biochemical; conditions: MLL1-WRAD2 assay; read-out: In vitro MLL1 activity (IC50)
Description: Reaction was initiated with 1 μM 3H-SAM and incubated for 1 hour at 30° C. Reaction mixture was transferred to P81 filter-paper and washed with PBS before detection.

WDR5 protein = WDR5 protein (Homo sapiens (Human), UniProt P61964); assay: Surface Plasmon Resonance (SPR) assay; assay type: binding; conditions: SPR; for residence time: τ=1/koff, read-out: Residence Time (t, min)
MV4-11 cells = assay: Cell proliferation assay (ATPlite); assay type: cell-based; conditions: Homo sapiens, MV4-11, 120 h; MV-411 cells, five days; read-out: In vitro whole cell potency in MV-411 cells, (IC50)
Description: MV4-11 cells were seeded into a 96-well plate at 1,000 cells/well in 150 μl medium (Alpha-MEM containing 10% FBS, 100 μg/ml Normocin, and 50 μg/ml Gentamycin, Invitrogen). A HP D300 digital dispenser was used to dose cells with DMSO or test compounds across a 10-point range of concentrations (high dose of 10 μM), and cultures were grown in a humidified 5% CO2 incubator at 37° C. After five days, plates were removed from incubator and equilibrated to room temperature. An equal volume of ATPlite assay reagent was added to each well, and samples were processed according to manufacturer's instructions (Perkin Elmer). Luminescent signal was measured using an Envision plate reader equipped with a US-Luminescence detector.

[1] = Table 1, read-out: WDR5 binding affinity (KD)
[2] = Table 2, read-out: WDR5 binding affinity SPR (KD)

IC50 (MLL1-WRAD2 complex)	Kd (WDR5 protein; [1])	Kd (WDR5 protein; [2])	residence time (WDR5 protein)	IC50 (MV4-11 cells)	Compound
1470 nM	10 nM	10 nM	5.25 min	5970 nM	CN1CCN(c2ccc(-c3ccc(OCC4CC4)nc3F)cc2NC(=O)c2c[nH]c(=O)cc2C(F)(F)F)CC1 [Example 16, N-(5-(6-(cyclopropylmethoxy)-2-fluoropyridin-3-yl)-2-(4-methylpiperazin-1-yl)phenyl)-6-oxo-4-(trifluoromethyl)-1,6-dihydropyridine-3-carboxamide]
1150 nM	3.2 nM	3.2 nM	8.8 min	292 nM	CN1CCN(c2ccc(-c3cc(CN(C)C4CCCCC4)ccc3F)cc2NC(=O)c2c[nH]c(=O)cc2C(F)(F)F)CC1 [Example 67, N-(5′-((cyclohexyl(methyl)amino)methyl)-2′-fluoro-4-(4-methylpiperazin-1-yl)-[1,1′-biphenyl]-3-yl)-6-oxo-4-(trifluoromethyl)-1,6-dihydropyridine-3-carboxamide]
> 30000 nM	6.3 nM	17.5 nM	0.78 min	> 10000 nM	CC1CN(c2ccc(-c3cc(C(=O)NC4CCCCC4)ccc3F)cc2NC(=O)c2c[nH]c(=O)cc2C(F)(F)F)CCN1C (centres unmarked) [Example 81, N-(5′-(cyclohexylcarbamoyl)-4-(3,4-dimethylpiperazin-1-yl)-2′-fluoro-[1,1′-biphenyl]-3-yl)-6-oxo-4-(trifluoromethyl)-1,6-dihydropyridine-3-carboxamide]
1740 nM	9 nM	9 nM	5.76 min	1280 nM	CN1CCN(c2ccc(-c3cc(OC4CCOCC4)ncc3F)cc2NC(=O)c2c[nH]c(=O)cc2C(F)(F)F)CC1 [Example 31, N-(5-(5-fluoro-2-((tetrahydro-2H-pyran-4-yl)oxy)pyridin-4-yl)-2-(4-methylpiperazin-1-yl)phenyl)-6-oxo-4-(trifluoromethyl)-1,6-dihydropyridine-3-carboxamide]
216 nM	4 nM	4 nM	7.88 min	410 nM	CN1CCN(c2ccc(-c3cc(CNC4CCCCC4)ccc3F)cc2NC(=O)c2c[nH]c(=O)cc2C(F)(F)F)CC1 [Example 7, N-(5′-((cyclohexylamino)methyl)-2′-fluoro-4-(4-methylpiperazin-1-yl)-[1,1′-biphenyl]-3-yl)-6-oxo-4-(trifluoromethyl)-1,6-dihydropyridine-3-carboxamide]
5930 nM	5.1 nM	5.1 nM	1.16 min	> 10000 nM	CN1CCN(c2ccc(-c3cc(CN4CCNCC4)ccc3F)cc2NC(=O)c2c[nH]c(=O)cc2C(F)(F)F)CC1 [Example 72, N-(2′-fluoro-4-(4-methylpiperazin-1-yl)-5′-(piperazin-1-ylmethyl)-[1,1′-biphenyl]-3-yl)-6-oxo-4-(trifluoromethyl)-1,6-dihydropyridine-3-carboxamide]
3990 nM	8 nM	8 nM	3.42 min	> 10000 nM	CN1CCN(c2ccc(-c3ccc(CN4CCOCC4)cc3F)cc2NC(=O)c2c[nH]c(=O)cc2C(F)(F)F)CC1 [Example 38, N-(2′-fluoro-4-(4-methylpiperazin-1-yl)-4′-(morpholinomethyl)-[1,1′-biphenyl]-3-yl)-6-oxo-4-(trifluoromethyl)-1,6-dihydropyridine-3-carboxamide]
966 nM	11 nM	11 nM	6.4 min	3180 nM	COCOc1cc(F)c(-c2ccc(N3CCN(C)CC3)c(NC(=O)c3c[nH]c(=O)cc3C(F)(F)F)c2)cc1C(=O)NC(C)(C)CC(C)(C)C [Example 3, N-(2′-fluoro-4′-(methoxymethoxy)-4-(4-methylpiperazin-1-yl)-5′-((2,4,4-trimethylpentan-2-yl)carbamoyl)-[1,1′-biphenyl]-3-yl)-6-oxo-4-(trifluoromethyl)-1,6-dihydropyridine-3-carboxamide]
2250 nM	9 nM	9 nM	4.04 min	2260 nM	CN1CCN(c2ccc(-c3cc(OCC4CC4)ncc3F)cc2NC(=O)c2c[nH]c(=O)cc2C(F)(F)F)CC1 [Example 15, N-(5-(2-(cyclopropylmethoxy)-5-fluoropyridin-4-yl)-2-(4-methylpiperazin-1-yl)phenyl)-6-oxo-4-(trifluoromethyl)-1,6-dihydropyridine-3-carboxamide]

Continued, molecule first:

Compound	IC50 (MLL1-WRAD2 complex)	Kd (WDR5 protein; [1])	Kd (WDR5 protein; [2])	residence time (WDR5 protein)	IC50 (MV4-11 cells)
C[C@@H]1CN(c2ccc(-c3cc(C(=O)N4CCOCC4)ccc3F)cc2NC(=O)c2c[nH]c(=O)cc2C(F)(F)F)C[C@H](C)N1C [Example 47, N-(2′-fluoro-5′-(morpholine-4-carbonyl)-4-((3S,5R)-3,4,5-trimethylpiperazin-1-yl)-[1,1′-biphenyl]-3-yl)-6-oxo-4-(trifluoromethyl)-1,6-dihydropyridine-3-carboxamide]	2390 nM	8 nM	8 nM	9.58 min	1990 nM
CCN1CCN(c2ccc(-c3cc(CNC4CCCCC4)ccc3F)cc2NC(=O)c2c[nH]c(=O)cc2C(F)(F)F)CC1 [Example 63, N-(5′-((cyclohexylamino)methyl)-4-(4-ethylpiperazin-1-yl)-2′-fluoro-[1,1′-biphenyl]-3-yl)-6-oxo-4-(trifluoromethyl)-1,6-dihydropyridine-3-carboxamide]	5630 nM	> 200 nM	> 200 nM		> 10000 nM
CN1CCN(c2ccc(-c3cc(CN4CCC(N5CCOCC5)CC4)ccc3F)cc2NC(=O)c2c[nH]c(=O)cc2C(F)(F)F)CC1 [Example 70, N-(2′-fluoro-4-(4-methylpiperazin-1-yl)-5′-((4-morpholinopiperidin-1-yl)methyl)-[1,1′-biphenyl]-3-yl)-6-oxo-4-(trifluoromethyl)-1,6-dihydropyridine-3-carboxamide]	1110 nM	4.4 nM	4.4 nM	5.8 min	1140 nM
C[C@@H]1CN(c2ccc(-c3cc(CNC4CCCCC4)ccc3F)cc2NC(=O)c2c[nH]c(=O)cc2C(F)(F)F)C[C@H](C)N1C [Example 45, N-(5′-((cyclohexylamino)methyl)-2′-fluoro-4-((3S,5R)-3,4,5-trimethylpiperazin-1-yl)-[1,1′-biphenyl]-3-yl)-6-oxo-4-(trifluoromethyl)-1,6-dihydropyridine-3-carboxamide]	514 nM	2 nM	2 nM	31.9 min	74 nM
C[C@@H]1CN(c2ccc(-c3cc(C(=O)NC4CCCCC4)ccc3F)cc2NC(=O)c2c[nH]c(=O)cc2C(F)(F)F)C[C@H](C)N1C [Example 46, N-(5′-(cyclohexylcarbamoyl)-2′-fluoro-4-((3S,5R)-3,4,5-trimethylpiperazin-1-yl)-[1,1′-biphenyl]-3-yl)-6-oxo-4-(trifluoromethyl)-1,6-dihydropyridine-3-carboxamide]	290 nM	0.95 nM	0.95 nM	74.4 min	118 nM
C[C@@H]1CN(c2ccc(-c3nc(N4CCOCC4)ncc3F)cc2NC(=O)c2c[nH]c(=O)cc2C(F)(F)F)C[C@H](C)N1C [Example 125, N-(5-(5-fluoro-2-morpholinopyrimidin-4-yl)-2-((3S,5R)-3,4,5-trimethylpiperazin-1-yl)phenyl)-6-oxo-4-(trifluoromethyl)-1,6-dihydropyridine-3-carboxamide]	49 nM	3 nM	3.1 nM	11.6 min	87 nM
CN1CCN(c2ccc(-c3cc(CN4CCN(Cc5ccc(F)cc5)CC4)ccc3F)cc2NC(=O)c2c[nH]c(=O)cc2C(F)(F)F)CC1 [Example 68, N-(2′-fluoro-5′-((4-(4-fluorobenzyl)piperazin-1-yl)methyl)-4-(4-methylpiperazin-1-yl)-[,1′-biphenyl]-3-yl)-6-oxo-4-(trifluoromethyl)-1,6-dihydropyridine-3-carboxamide]	1890 nM	7.7 nM	7.7 nM	3.81 min	1790 nM
C[C@@H]1CN(c2ccc(-c3cc(CN4CCOCC4)ccc3F)cc2NC(=O)c2c[nH]c(=O)cc2C(F)(F)F)C[C@H](C)N1C [Example 27, N-(2′-fluoro-5′-(morpholinomethyl)-4-((3S,5R)-3,4,5-trimethylpiperazin-1-yl)-[1,1′-biphenyl]-3-yl)-6-oxo-4-(trifluoromethyl)-1,6-dihydropyridine-3-carboxamide]	529 nM	8 nM	8 nM	5.84 min	737 nM
C[C@@H]1CN(c2ccc(-c3cc(OCC4CC4)ncc3F)cc2NC(=O)c2c[nH]c(=O)cc2C(F)(F)F)C[C@H](C)N1C [Example 50, N-(5-(2-(cyclopropylmethoxy)-5-fluoropyridin-4-yl)-2-((3S,5R)-3,4,5-trimethylpiperazin-1-yl)phenyl)-6-oxo-4-(trifluoromethyl)-1,6-dihydropyridine-3-carboxamide]	1790 nM	4 nM	4 nM	12.6 min	943 nM
